{
  "source": "patent US20220364065A1",
  "about": "“COMPOSITION FOR REMOVING PLURIPOTENT STEM CELLS AND METHOD OF REMOVING PLURIPOTENT STEM CELLS” (NATIONAL UNIVERSITY CORPORATION HOKKAIDO UNIVERSITY, priority 2018, published 2022)",
  "key": {"mouse ES cells [1]": {"system": "mouse ES cells", "assay": "MTT assay, viability of mouse ES cells", "type": "cell-based", "settings": "3 days", "protocol": "(§1) One thousand cells were seeded into each well of a 96-well plate and cultured for 3 days in medium (200 μL/well) supplemented with only DMSO at a final concentration of 0.1% or in medium (200 μL/well) supplemented with each dihydroorotate dehydrogenase (DHODH) inhibitor. The medium used was the appropriate culture solution for each cell as described above.\n(§2) The concentration of each DHODH inhibitor added to the medium was a 2-fold dilution series starting from 200 μM.\n(§3) As a background, a well containing medium only was prepared, and as a control, a well was also prepared in which medium containing Triton X-100 (final concentration 0.2%) was added to the cells.\n(§4) Then, 5 μL of MTT (5 mg/ml, manufactured by Wako) was added to each well, and the cells were incubated at 37° C. for 2 to 3 hours. Then, the medium was replaced with 100 μL of DMSO to lyse the cells, and the absorbance of these cell lysates at a wavelength of 570 nm was measured with a microplate reader (manufactured by Bio-Rad, Benchmark model). In addition, based on the obtained absorbance, the cell viability was calculated by the following formula.\n(§5) Cell viability (%)=(absorbance in wells with DHODH inhibitor-absorbance in background)/(absorbance in control-absorbance in background)×100."}, "[2]": {"system": "mouse neural stem cells (mNSC)", "assay": "MTT assay, viability of mouse neural stem cells", "type": "cell-based", "settings": "10 μM BRQ, 3 days", "protocol": "as §1, §2, §3, §4, §5"}, "mouse astrocytes": {"system": "mouse astrocytes", "assay": "MTT assay, viability of mouse astrocytes", "type": "cell-based", "settings": "10 μM BRQ, 3 days", "protocol": "as §1, §2, §3, §4, §5"}, "[3]": {"system": "PA6: mouse bone marrow-derived stromal cells", "assay": "MTT assay, viability of PA6 cells", "type": "cell-based", "settings": "10 μM BRQ, 3 days", "protocol": "as §1, §2, §3, §4\nCell viability (%)=(absorbance in wells with DHODH inhibitor-absorbance in background)/(absorbance in control-absorbance in background)×100. […]"}, "[4]": {"system": "mouse neural stem cells and mouse ES cells", "assay": "Mixed culture of neural stem cells and ES cells, Nestin/Nanog immunostaining", "type": "cell-based", "settings": "10 μM BRQ, 3 days", "protocol": "The cells were fixed and immunostained as described in Kondo et al., Genes Dev. 2004, Vol. 18, Issue 23, pp. 2963-72. […] For the culture of mNSCs, PDL+fibronectin-coated ones were used (see Johe KK et al., Genes Dev. 1996, Vol. 10, Issue 24, pp. 3129 to 3140). For the culture of ES cells and iPS cells, gelatin-coated ones were used.\nFor immunostaining, the cells were first washed once with PBS, then fixed by adding 4% paraformaldehyde and incubating for 10 minutes at room temperature. The cells were replaced with PBS containing 0.3% Triton X100 and incubated for 5 minutes at room temperature, then replaced with PBS containing 0.3% Triton X100 and 10% FCS (blocking solution) and incubated for 30 minutes at room temperature. The solution was replaced with primary antibody solution diluted in blocking solution and incubated for 2 hours at room temperature. After washing three times with PBS, secondary antibody and DAPI solution diluted with blocking solution were added and incubated at room temperature for 2 hours. After washing three times with PBS, the cells were sealed with anti-fading agent (manufactured by DAKO, code number: 53023) and observed under a microscope. […] In addition, fluorescence images were acquired with an Axiolmager M1 microscope (manufactured by Carl Zeiss).\nThe cells were then analyzed by immunostaining as described above."}, "mouse iPS cells [5]": {"system": "mouse iPS cells", "assay": "Immunostaining of pluripotent stem cell markers (Sox2, Nanog, Oct4), iPS cells", "type": "cell-based", "protocol": "The cells were fixed and immunostained as described in Kondo et al., Genes Dev. […] For the culture of ES cells and iPS cells, gelatin-coated ones were used.\nFor immunostaining, the cells were first washed once with PBS, then fixed by adding 4% paraformaldehyde and incubating for 10 minutes at room temperature. The cells were replaced with PBS containing 0.3% Triton X100 and incubated for 5 minutes at room temperature, then replaced with PBS containing 0.3% Triton X100 and 10% FCS (blocking solution) and incubated for 30 minutes at room temperature. The solution was replaced with primary antibody solution diluted in blocking solution and incubated for 2 hours at room temperature. After washing three times with PBS, secondary antibody and DAPI solution diluted with blocking solution were added and incubated at room temperature for 2 hours. […] Note that the cell nuclei were visualized by contrast staining with DAPI solution (1 μg/mL, manufactured by Dojindo, product code: D523). In addition, fluorescence images were acquired with an Axiolmager M1 microscope (manufactured by Carl Zeiss).\nLMB is a specific inhibitor of CRM1, also known as Exportin 1."}, "mouse ES cells [6]": {"system": "mouse ES cells", "assay": "Quantitative RT-PCR of Sox2, Oct4, Nanog, ES cells", "type": "cell-based", "settings": "10 μM BRQ, 2 days", "protocol": "(§6) First, total RNA was prepared from cells using the RNeasy kit (manufactured by Qiagen), and cDNA was synthesized using the Transcriptor First Strand cDNA Synthesis Kit (manufactured by Roche Applied Science).\n(§7) Then, the cDNA was used as a template, and Thunderbird Cyber qPCR Mix (manufactured by TOYOBO) and Step One Plus (manufactured by Thermo Fisher Scientific) were used to perform real-time PCR. The reaction conditions were set at 95° C. for 15 seconds and 60° C. for 30 seconds for 40 cycles, and the oligonucleotide primers shown below were used to amplify each target gene.\n(§8) Note that the expression level of each target gene detected in this way was normalized by the relative quantification method (delta delta Ct method) based on the expression level of 18S ribosomal RNA."}, "mouse iPS cells [7]": {"system": "mouse iPS cells", "assay": "Quantitative RT-PCR of Sox2, Oct4, Nanog, iPS cells", "type": "cell-based", "settings": "10 μM BRQ, 2 days", "protocol": "as §6, §7, §8"}, "mouse ES cells [8]": {"system": "mouse ES cells", "assay": "Teratoma formation from pretreated ES cells in NOD/SCID mice", "type": "in vivo", "settings": "ES cells pretreated 2 days with 10 μM BRQ, subcutaneous in NOD/SCID mice, 4 weeks", "protocol": "The viable cells (1×10^6) were suspended in 50 μl of Matrigel (manufactured by BD Biosciences) and injected subcutaneously into the buttocks of 5-8-week-old NOD/SCID mice anesthetized with 10% pentobarbital. Four weeks after the injection, the mice were sacrificed to death, and the tumors were removed and photographed for their size measurement according to the method described in Tsukamoto Y, et al., Stem Cells. 2016; 34(8): 2016-2025. Based on the measurement values obtained, the volume of the tumors was calculated by the following formula.\nVolume of tumor (cm^3)=major diameterxminor diameterxminor diameter×½.\nThen, 4 weeks after transplantation, the tumors were removed and observed."}, "[9]": {"settings": "iPS cells, 2 days, BRQ 10 μM (ZVAD 100 nM where added)"}, "[10]": {"settings": "mouse iPS cells, 10 μM BRQ, 24 hours"}},
  "note": "Entries after “also recorded” stand apart in the source; their conditions may differ.",
  "data": [
    {"smiles": "Cc1c(-c2ccc(-c3ccccc3F)cc2)nc2ccc(F)cc2c1C(=O)O", "note": "[BRQ, 6-fluoro-2-(2′-fluoro-1,1′-biphenyl-4-yl)-3-methyl-4-quinoline-sodium carboxylate]", "values": [
      {"measurement": "cytotoxic activity (viability, MTT assay)", "setting": "mouse ES cells [1]; 10 μM BRQ", "value": "significant cytotoxic activity"},
      {"measurement": "cytotoxic activity (viability, MTT assay)", "setting": "mouse ES cells [1]; 2-fold dilution series starting from 200 μM", "value": "significant cytotoxic activity"},
      {"measurement": "cytotoxic activity / sensitivity (viability, MTT assay)", "setting": "[2]", "value": "hyposensitive; also recorded: no significant cytotoxic activity"},
      {"measurement": "cytotoxic activity / sensitivity (viability, MTT assay)", "setting": "mouse astrocytes", "value": "hyposensitive; also recorded: no significant cytotoxic activity"},
      {"measurement": "cytotoxic activity (viability, MTT assay)", "setting": "[3]", "value": "no significant cytotoxic activity"},
      {"measurement": "ES cells (Nanog) in mixed culture", "setting": "[4]; ES cell medium", "value": "lost"},
      {"measurement": "cytotoxicity to neural stem cells (Nestin) in mixed culture", "setting": "[4]; mixed with ES cells", "value": "no obvious cytotoxicity"},
      {"measurement": "Nanog-positive cells", "setting": "mouse iPS cells [5]; [9]", "value": 0, "unit": "%"},
      {"measurement": "Oct4-positive cells", "setting": "mouse iPS cells [5]; [9]", "value": 0, "unit": "%"},
      {"measurement": "cells in which expression of Sox2 was not observed", "setting": "mouse iPS cells [5]; [10]", "value": "about 30%"},
      {"measurement": "inhibition of cell proliferation or cell death", "setting": "mouse iPS cells [5]; [10]", "value": "inhibition of cell proliferation or cell death was already observed"},
      {"measurement": "subcellular localization of Nanog", "setting": "mouse iPS cells [5]; mouse iPS cells, 10 μM BRQ, 2 days", "value": "distributed in the cytoplasm"},
      {"measurement": "expression levels of marker genes (Sox2, Oct4, Nanog)", "setting": "mouse ES cells [6]", "value": "generally decreased"},
      {"measurement": "expression levels of marker genes (Sox2, Oct4, Nanog)", "setting": "mouse iPS cells [7]", "value": "generally decreased"},
      {"measurement": "tumor formation from pretreated cells", "setting": "mouse ES cells [8]", "value": "did not proliferate"}
    ]}
  ]
}
